# Data from article PMC10541198, “Specific quinone reductase 2 inhibitors reduce metabolic burden and reverse Alzheimer’s disease phenotype in mice” (The Journal of Clinical Investigation, 2023).
# Several values for one entry are separate records, joined by “and”; a condition that tells them apart may be missing. Equal values may be shown once.
# Experiments:
# 5xFAD mice = test: Open field in 5xFAD mice; format: in vivo, mouse; conditions: for hind-limb rearing frequency / maximum movement bout duration / meandering / proportion of time moving / total distance traveled / total movement duration / average velocity: 5xFAD 1 month; for Sup. Fig. 5-2C, open field parameter / Sup. Fig. 5-2D, open field parameter / Sup. Fig. 5-2E, open field parameter / Sup. Fig. 5-2F, open field parameter / Sup. Fig. 5-2G, open field parameter / Sup. Fig. 5-2H, open field parameter / Sup. Fig. 5-2I, open field parameter: individual animals
# Experimental: Mice were individually placed within a cage and taken to a dimly lit room containing an open field arena 50 x 50 cm in size. They were gi ve n 10 min prior to be i ng placed within the arena, where f or a period of 5 min they were allowed to explore. Two weeks later, this was repeated. The mice were filmed with an Ikegami ICD-49E camera with EthoVision 14 (Noldus Information Technology). Th e fl oor was ei ther whit e or black,dependingon mous e coat c ol or, to allow automatic analysisof movement par am et ers, apar t from rearing which was manually counted. […]
# QR2Δ HCT116 cells = test: H2DCFDA detection of cellular ROS in QR2 KO cells; format: cell-based, human; conditions: 20 μM, 3 hour
# Experimental: (§1) To establish direct target engagement and cell membrane permeability, a cellular thermal shift assay (CETSA) was carried out, using leading QR2is YB’s-537, 800, and 808. Following a 1 hour preincubation with 5 μM of the QR2is or vehicle, thermal aggregation curves (Taggs) of QR2 expressed in HEK293T were measured in increasing temperatures. All QR2is increased QR2 thermal stability compared with vehicle (Supplemental Figure 2A). Based on the Tagg curves we selected 73°C for isothermal dose-response fingerprint (IDTRF) experiments (Supplemental Figure 2B). The ITDRF allowed the relative quantification of the binding of each of the QR2is to QR2, measured as the EC50 (Figure 3A). […] We evaluated the safety of the QR2is using cell toxicity and viability assays. […] Cell viability was assessed by XTT assay in HEK239T cells, using a dose response, with 3- or 24-hour incubations of the leading QR2is. […] We then assessed WT HCT116 cells by immunoblot (Supplemental Figure 2, C and D), after being treated with YB-800 (2 μM) for 4 consecutive days. […]
# (§2) The cells wer e har ves t ed a nd resuspended in 1% cl ear m e di um ( DM EM – with no phenol red, suppl em ent ed with 1% FBS, 1% L-Glutamine and 1% Penicillin-Streptomycin). […] The plate wa s then incubated in the dark at 37°C f or 3 h, before reading in a Tecan M200 Pro florescence microplate reader, using wavelengths Ex/Em = 485 nm / 535 nm . […]
# HCT116 cells = test: H2DCFDA detection of cellular ROS; format: cell-based, human; conditions: 20 μM, 3 hour, WT HCT116
# Experimental: as §1, §2
smiles,measurement,setting,value
Cc1ccc(-c2cn3cccc(C)c3n2)cc1S(=O)(=O)N1CCNCC1 [YB-537],hind-limb rearing frequency,5xFAD mice; both sexes,35.72 ± 3.292
same,maximum movement bout duration,5xFAD mice; both sexes,8.061 ± 1.322 s
same,meandering,5xFAD mice; both sexes,733.4 ± 42.8 deg/cm
same,proportion of time moving,5xFAD mice; both sexes,81.44 ± 1.134%
same,total distance traveled,5xFAD mice; both sexes,3244 ± 237.9 cm
same,total movement duration,5xFAD mice; both sexes,244.3 ± 3.402 s
same,average velocity,"5xFAD mice; both sexes, n=16",10.9 ± 0.800 cm/s
same,hind-limb rearing frequency,5xFAD mice; females,35.29 ± 4.894
same,maximum movement bout duration,5xFAD mice; females,9.677 ± 3.012 s
same,meandering,5xFAD mice; females,696.3 ± 65.26 deg/cm
same,proportion of time moving,5xFAD mice; females,81.84 ± 1.856%
same,total distance traveled,5xFAD mice; females,3581 ± 484.5 cm
same,total movement duration,5xFAD mice; females,245.5 ± 5.568 s
same,average velocity,"5xFAD mice; females, n=7",12.03 ± 1.625 cm/s
same,hind-limb rearing frequency,5xFAD mice; males,36.06 ± 4.703
same,maximum movement bout duration,5xFAD mice; males,6.804 ± 0.2919 s
same,meandering,5xFAD mice; males,762.2 ± 58.17 deg/cm
same,proportion of time moving,5xFAD mice; males,81.13 ± 1.5%
same,total distance traveled,5xFAD mice; males,2983 ± 179.3 cm
same,total movement duration,5xFAD mice; males,243.4 ± 4.5 s
same,average velocity,"5xFAD mice; males, n=9",10.01 ± 0.611 cm/s
same,"Sup. Fig. 5-2C, open field parameter",5xFAD mice; Females,10.98 and 10.27 and 10.24 and 21.02 and 13.07 and 7.45 and 11.20
same,"Sup. Fig. 5-2D, open field parameter",5xFAD mice; Females,3256.8 and 3049.8 and 3043.6 and 6259.0 and 3891.4 and 2217.1 and 3346.6
same,"Sup. Fig. 5-2E, open field parameter",5xFAD mice; Females,773.0 and 764.4 and 714.5 and 402.2 and 601.2 and 962.5 and 656.3
same,"Sup. Fig. 5-2F, open field parameter",5xFAD mice; Females,6.70 and 6.10 and 6.62 and 27.48 and 6.06 and 5.20 and 9.58
same,"Sup. Fig. 5-2G, open field parameter",5xFAD mice; Females,244.56 and 241.26 and 242.64 and 269.82 and 249.06 and 220.20 and 251.04
same,"Sup. Fig. 5-2H, open field parameter",5xFAD mice; Females,81.52 and 80.42 and 80.88 and 89.94 and 83.02 and 73.40 and 83.68
same,"Sup. Fig. 5-2I, open field parameter",5xFAD mice; Females,50 and 30.5 and 32 and 31.5 and 55 and 17 and 31
same,"Sup. Fig. 5-2C, open field parameter",5xFAD mice; Males + Females,10.98 and 10.27 and 10.24 and 21.02 and 7.23 and 10.34 and 8.54 and 12.00 and 10.63 and 9.25 and 12.61 and 11.34 and 8.16 and 13.07 and 7.45 and 11.20
same,"Sup. Fig. 5-2D, open field parameter",5xFAD mice; Males + Females,3256.8 and 3049.8 and 3043.6 and 6259.0 and 2163.2 and 3078.1 and 2557.7 and 3556.2 and 3161.5 and 2756.6 and 3753.0 and 3376.0 and 2440.2 and 3891.4 and 2217.1 and 3346.6
same,"Sup. Fig. 5-2E, open field parameter",5xFAD mice; Males + Females,773.0 and 764.4 and 714.5 and 402.2 and 993.0 and 822.7 and 744.6 and 500.6 and 644.6 and 955.7 and 543.5 and 756.2 and 899.4 and 601.2 and 962.5 and 656.3
same,"Sup. Fig. 5-2F, open field parameter",5xFAD mice; Males + Females,6.70 and 6.10 and 6.62 and 27.48 and 6.46 and 7.38 and 6.24 and 6.00 and 7.90 and 5.98 and 6.32 and 8.40 and 6.56 and 6.06 and 5.20 and 9.58
same,"Sup. Fig. 5-2G, open field parameter",5xFAD mice; Males + Females,244.56 and 241.26 and 242.64 and 269.82 and 228.20 and 238.00 and 244.72 and 264.44 and 254.26 and 226.58 and 258.62 and 243.36 and 232.42 and 249.06 and 220.20 and 251.04
same,"Sup. Fig. 5-2H, open field parameter",5xFAD mice; Males + Females,81.52 and 80.42 and 80.88 and 89.94 and 76.07 and 79.33 and 81.57 and 88.15 and 84.75 and 75.53 and 86.21 and 81.12 and 77.47 and 83.02 and 73.40 and 83.68
same,"Sup. Fig. 5-2I, open field parameter",5xFAD mice; Males + Females,50.0 and 30.5 and 32.0 and 31.5 and 12.5 and 27.5 and 35.0 and 60.5 and 43.0 and 34.0 and 45.0 and 44.0 and 23.0 and 55.0 and 17.0 and 31.0
same,"Sup. Fig. 5-2C, open field parameter",5xFAD mice; Males,12.00 and 10.63 and 9.25 and 12.61 and 11.34 and 8.16 and 7.23 and 10.34 and 8.54
same,"Sup. Fig. 5-2D, open field parameter",5xFAD mice; Males,3556.2 and 3161.5 and 2756.6 and 3753.0 and 3376.0 and 2440.2 and 2163.2 and 3078.1 and 2557.7
same,"Sup. Fig. 5-2E, open field parameter",5xFAD mice; Males,500.6 and 644.6 and 955.7 and 543.5 and 756.2 and 899.4 and 993.0 and 822.7 and 744.6
same,"Sup. Fig. 5-2F, open field parameter",5xFAD mice; Males,6.00 and 7.90 and 5.98 and 6.32 and 8.40 and 6.56 and 6.46 and 7.38 and 6.24
same,"Sup. Fig. 5-2G, open field parameter",5xFAD mice; Males,264.44 and 254.26 and 226.58 and 258.62 and 243.36 and 232.42 and 228.20 and 238.00 and 244.72
same,"Sup. Fig. 5-2H, open field parameter",5xFAD mice; Males,88.15 and 84.75 and 75.53 and 86.21 and 81.12 and 77.47 and 76.07 and 79.33 and 81.57
same,"Sup. Fig. 5-2I, open field parameter",5xFAD mice; Males,60.5 and 43 and 34 and 45 and 44 and 23 and 12.5 and 27.5 and 35
Cc1ccc(-c2cn3cccc(C)c3n2)cc1S(=O)(=O)N1CCC(C)CC1 [YB-800],ROS levels (replicates),QR2Δ HCT116 cells,0.1657 and -0.09332 and -0.11 and 0.01889 and -0.0308
same,ROS levels (replicates),HCT116 cells,0.005141 and -0.1557 and -0.2104 and -0.08593 and -0.04485
